row,melting point [°C],SMILES
1,231 to 237,CS(=O)(=O)COc1ccc2c(C#N)c(-c3ccc(NS(=O)(=O)C4CCC4)cc3)n(C3CCC3)c2c1 [Compound 2993]
2,206 to 208,C[C@H](OC(=O)Nc1ccc(-c2c(C#N)c3cc(OCCCn4cncn4)ccc3n2C2CCC2)cc1)c1ccccc1 [Compound 2733]
3,221 to 223,CC(C)OC(=O)Nc1ccc(-c2c(C#N)c3ccc(OCCNC4CCC4)cc3n2C2CCC2)cc1 [Compound 1434]
4,217 to 221,COc1ccc2c(F)c(-c3ccc(NC(=O)NC(C)C)cc3)n(CC3CC3)c2c1 [Compound 2277]
5,205 to 207,C[C@@H](OC(=O)Nc1ccc(-c2c(C#N)c3ccc(Oc4ncccn4)cc3n2C2CCC2)cc1)C(F)(F)F [Compound 2852]
6,189 to 196,CCn1c(-c2ccc(NC(=O)O[C@H](C)C3CC3)cc2)c(C#N)c2ccc(OC3CCS(=O)(=O)CC3)cc21 [Compound 3231]
7,229 to 231,N#Cc1c(-c2ccc(NC3CCC3)nc2)n(C2CCC2)c2cc(Oc3ncccn3)ccc12 [Compound 3348]
8,196 to 197,CC(C)Nc1ccc(-c2c(C#N)c3ccc(Oc4ncccc4Cl)cc3n2C2CC2)cc1 [Compound 2951]
9,136 to 138,N#Cc1c(-c2ccc(NC3=NC(O)(C(F)(F)F)CS3)cc2)n(C2CCC2)c2cc(OC3CCOCC3)ccc12 (stereo not drawn) [Compound 3150]
10,201 to 203,COCCN(C)C(=O)c1ccc2c(C#N)c(-c3ccc(NS(=O)(=O)C4CC4)cc3)n(C3CCC3)c2c1 [Compound 2824]
11,173 to 181,CC(C)NC(=O)Nc1ccc(-c2c(C#N)c3ccc(Oc4ncccn4)cc3n2C2CCC2)cc1C#N [Compound 3325]
12,183 to 184,CC(OC(=O)Nc1ccc(-c2c(C#N)c3ccc(OC4CCOC4)cc3n2C2CCC2)cc1)c1ccccc1 (stereo not drawn) [Compound 1456]
13,138 to 140,CC(C)NC(=O)Nc1ccc(-c2c(C#N)c3ccc(OCC(O)Cn4ccnc4)cc3n2C2CCC2)cc1 (stereo not drawn) [Compound 1421]
14,197 to 202,C[C@@H](OC(=O)Nc1ccc(-c2c(C#N)c3cc(N4CCOCC4)ccc3n2C2CCC2)cc1)C(F)(F)F [Compound 2832]
15,122 to 125,CC(C)OC(=O)Nc1ccc(-c2c(C#N)c3ccc(OCCCNC4CC4)cc3n2C2CCC2)cc1 [Compound 1430]
16,108 to 110,N#Cc1c(-c2ccc(Nc3cccc(OC(F)(F)F)c3)cc2)n(C2CCC2)c2cc(OC3CCOCC3)ccc12 [Compound 3129]
17,243 to 250,C[C@@H](OC(=O)Nc1ccc(-c2c(C#N)c3ccc(OC4CCS(=O)(=O)CC4)cc3n2C2CCCC2)cc1)C1CC1 [Compound 3245]
18,118 to 124,C[C@H](NS(=O)(=O)Nc1ccc(-c2c(C#N)c3ccc(Oc4ncccc4Br)cc3n2C2CCC2)cc1)C1CC1 [Compound 3020]
19,149 to 152,N#Cc1c(-c2ccc(N)cc2)n(C2CCC2)c2cc(Oc3nccc(N4CCOCC4)n3)ccc12 [Compound 3099]
20,250 to 252,N#Cc1c(-c2ccc(Nc3nc(C(F)(F)F)cs3)cc2)n(C2CCC2)c2cc(OC3CCOCC3)ccc12 [Compound 3177]
21,227 to 230,CCCS(=O)(=O)Nc1ccc(-c2c(C#N)c3ccc(Oc4ncccc4C#N)cc3n2C2CCC2)c(OC)c1 [Compound 3344]

row,melting point [°C],SMILES
1,167 to 170,CCCS(=O)(=O)Nc1ccc(-c2c(C#N)c3ccc(Oc4nccc(C)n4)cc3n2CC2CC2)c(C)c1 [Compound 2980]
2,294 to 296,CCn1c(-c2ccc(NS(=O)(=O)CC)cc2)c(C#N)c2ccc(C(=O)O)cc21 [Compound 1344]
3,223 to 225,CCCS(=O)(=O)Nc1ccc(-c2c(C#N)c3ccc(Oc4ncccc4Br)cc3n2C2CC2)cc1 [Compound 3003]
4,99 to 101,"CC(OC(=O)Nc1ccc(-c2cc3ccc(Oc4ncccn4)cc3n2C2CCC2)cc1)C(F)(F)F (stereo not drawn) [compound 2888, {4-[1-cyclobutyl-6-(pyrimidin-2-yloxy)-1H-indole-2-yl]-phenyl}-carbamic acid 2,2,2-trifluoro-1-methyl-ethyl ester]"
5,74 to 76,COCCOc1ccc2c(C#N)c(-c3ccc(NC(=O)OC(c4ccccc4)C4CC4)cc3)n(C3CC3)c2c1 (stereo not drawn) [Compound 1437]
6,75 to 77,COCCN(CCOC)C(=O)c1ccc2c(C#N)c(-c3ccc(NC(=O)O[C@H](C)C4CC4)cc3)n(C3CCC3)c2c1 [Compound 2794]
7,209 to 213,N#Cc1c(-c2ccc(Nc3ncccn3)cc2)n(C2CCC2)c2cc(OC3CCOCC3)ccc12 [Compound 3166]
8,157 to 159,CC(C)c1ccc(CNc2ccc(-c3c(C#N)c4ccc(OC5CCOCC5)cc4n3C3CCC3)cc2)cc1 [Compound 3119]
9,199 to 200,COCCOc1ccc2c(C#N)c(-c3ccc(C(=O)NC4CCC4)cc3)n(C3CCC3)c2c1 [Compound 2759]
10,250 to 251,CCn1c(-c2ccc(N3CCCCCC3=O)cc2)c(C#N)c2ccc(OC(C)C)cc21 [Compound 3223]
11,195 to 196,CCOc1ccc2c(C#N)c(-c3ccc(S(=O)(=O)N4CC[C@H](O)C4)cc3)n(C3CCC3)c2c1 [Compound 3085]
12,104 to 106,C[C@@H](OC(=O)Nc1ccc(-c2c(C#N)c3ccc(C(=O)N4CCN(C)CC4)cc3n2C2CCC2)cc1)C1CC1 [Compound 3106]
13,187 to 194,CCOc1ccc2c(C#N)c(-c3ccc(NC(=O)OCc4cccnc4)cc3)n(C3CCC3)c2c1 [Compound 1432]
14,200 to 204,N#Cc1c(-c2ccc(NS(=O)(=O)C3CCC3)cc2)n(C2CCC2)c2cc(OC3COCOC3)ccc12 [Compound 2919]
15,195 to 197,CCOP(=O)(Nc1ccc(-c2c(C#N)c3ccc(OC4CCOCC4)cc3n2C2CCC2)cc1)OCC [Compound 2744]
16,189 to 194,CCCS(=O)(=O)Nc1ccc(-c2c(C#N)c3ccc(N4CCCCC4)cc3n2CC2CC2)cc1 [Compound 2963]
17,183 to 184,CCCS(=O)(=O)Nc1ccc(-c2c(C#N)c3cc(OC4COCOC4)ccc3n2C2CCC2)cc1 [Compound 2776]
18,241 to 244,CC(C)OC(=O)Nc1ccc(-c2c(C#N)c3ccc(N4CCCC4)cc3n2C2CCC2)cc1 [Compound 2954]
19,215 to 217,N#Cc1c(-c2ccc(NC(=O)OCc3ccccc3)cc2)n(C2CCC2)c2ccc(OCCCn3cncn3)cc12 [Compound 2732]
20,195 to 202,CCOc1ccc2c(C#N)c(-c3ccc(S(=O)(=O)N4CCCCC4)cc3)n(C3CCC3)c2c1 [Compound 2661]
21,148 to 150,CCOCCOc1ccc2c(C#N)c(-c3ccc(NC(=O)NC(C)C)cc3)n(C3CCC3)c2c1 [Compound 2612]

row,melting point [°C],SMILES
1,147 to 149,N#Cc1c(-c2ccc(Oc3ccccn3)cc2)n(C2CCC2)c2cc(OC3CCOCC3)ccc12 [Compound 3169]
2,222 to 227,CCn1c(-c2ccc(N3CCCS3(=O)=O)cc2)c(C#N)c2ccc(OC3CCOCC3)cc21 [Compound 2940]
3,201 to 202,Cc1nccnc1Oc1ccc2c(C#N)c(-c3ccc(NC(=O)O[C@H](C)C4CC4)cc3)n(C3CCC3)c2c1 [Compound 2909]
4,168 to 171,CCn1c(-c2ccc(NS(=O)(=O)CC)cc2)c(C#N)c2ccc(C(=O)N3CCCC3)cc21 [Compound 1363]
5,246 to 249,C[C@@H](OC(=O)Nc1ccc(-c2c(C#N)c3ccc(N4CCCC4)cc3n2C2CCC2)cc1)C(F)(F)F [Compound 2961]
6,247 to 249,CS(=O)(=O)Nc1ccc(-c2c(C#N)c3ccc(C(=O)N4CCOCC4)cc3n2C2CCC2)cc1 [Compound 2897]
7,217 to 223,CCOc1ccc2c(C#N)c(-c3ccc(NC(=O)NCCN4CCOCC4)cc3)n(C3CCC3)c2c1 [Compound 1390]
8,202 to 205,N#Cc1c(-c2ccc(NC(=O)OC(C(F)(F)F)C(F)(F)F)cc2)n(C2CCC2)c2cc(OCC3OCCO3)ccc12 [Compound 2657]
9,158 to 160,CCc1cnc(Oc2ccc3c(C#N)c(-c4ccc(NC(=O)O[C@H](C)C5CC5)cc4)n(C4CCC4)c3c2)nc1 [Compound 2923]
10,173 to 175,CCCS(=O)(=O)Nc1ccc(-c2c(C#N)c3ccc(Oc4cccnc4Cl)cc3n2C2CCC2)cc1 [Compound 2945]
11,136 to 138,CC(C)OC(=O)Nc1ccc(-c2c(C#N)c3cc(C(=O)N(C)C)ccc3n2C2CCC2)cc1 [Compound 3146]
12,236 to 241,CCOc1ccc2c(C#N)c(-c3ccc(NC(=O)OC4CCN(S(=O)(=O)C5CC5)CC4)cc3)n(C3CCC3)c2c1 [Compound 3071]
13,80 to 83,C[C@@H](OC(=O)Nc1ccc(-c2c(C#N)c3ccc(OCCN4C(=O)CCC4=O)cc3n2C2CCC2)cc1)C1CC1 [Compound 3271]
14,212 to 214,CCC1(S(=O)(=O)Nc2ccc(-c3c(C#N)c4ccc(C(=O)N5CCOCC5)cc4n3C3CCC3)cc2)CC1 [Compound 2965]
15,191 to 193,CC(C)n1c(-c2ccc(NC(=O)O[C@H](C)C3CC3)cc2)c(C#N)c2ccc(N3CCOCC3)cc21 [Compound 2942]
16,162 to 169,C[C@@H](OC(=O)Nc1ccc(-c2c(C#N)c3cc(OCC4COCO4)ccc3n2C2CCC2)cc1)C(F)(F)F (stereo partly drawn) [Compound 2799]
17,135 to 140,"CCOc1ccc2c(I)c(-c3ccc(NC(=O)OC(C)C)cc3)n(CC3CC3)c2c1 [compound 2634, [4-(1-cyclopropylmethyl-6-ethoxy-3-iodo-1H-indol-2-yl)-phenyl]-carbamic acid isopropyl ester]"
18,232 to 236,CCn1c(-c2ccc(N3CCCS3(=O)=O)cc2)c(C#N)c2ccc(Oc3nccnc3C#N)cc21 [Compound 3196]
19,155 to 156,CCNC(=O)Oc1ccc(-c2c(C#N)c3ccc(OC4CCOCC4)cc3n2CC2CC2)cc1 [Compound 2780]
20,150 to 153,CC1CCN(C(=O)c2ccc3c(C#N)c(-c4ccc(NC(=O)O[C@H](C)C5CC5)cc4)n(C4CCC4)c3c2)CC1 [Compound 3108]
21,80 to 81,C[C@@H](OC(=O)Nc1ccc(-c2c(C#N)c3ccc(Oc4ncccn4)cc3n2C2CCC2)cc1OC(F)(F)F)C1CC1 [Compound 3034]
